According to PMC11372837, “Albumin-Mediated Drug Uptake by Organic Anion Transporter 1/3 Is Real: Implications for the Prediction of Active Renal Secretion Clearance” (Molecular Pharmaceutics, 2024):
“And” between values parts separate entries of the source, which are not always exact repeats. Equal entries are not always repeated. Where two headings read alike, the source gives them in different places.

Assays:
OAT1/3 [1] = experiment: Bottom-up IVIVE of CLint,sec, CLsec and CLr, relative expression factor (REF) approach; set-up: species or system human; conditions: REF approach
Source text: (§1) The relative expression and relative activity factor (REF and RAF) are unitless scalers that account for in vivo versus in vitro differences in the abundance and activity of OAT1/3 and are used for IVIVE of in vitro CLint,u,active. REF was derived from the OAT1/3 expression ratio between the in vivo human kidney cortex to the in vitro ciPTEC-OAT1/3, as shown in eq 7: [drawing 8] 7 Absolute abundance of OAT1 and OAT3 in the human kidney cortex was previously quantified by our group using the filter-aided sample preparation protocol and global proteomic analysis.[44]

human serum albumin = human serum albumin (Homo sapiens, UniProt P02768); experiment: Extent of albumin binding: high throughput equilibrium dialysis (fu,inc, Kd); type: in vitro ADME; conditions: mean ± SD; for Kd: estimated using eq 3 from measured fu,inc; for fraction unbound at 6 h: human, equilibrium dialysis 37 °C 6 h
Chain of human serum albumin (P02768 25-609): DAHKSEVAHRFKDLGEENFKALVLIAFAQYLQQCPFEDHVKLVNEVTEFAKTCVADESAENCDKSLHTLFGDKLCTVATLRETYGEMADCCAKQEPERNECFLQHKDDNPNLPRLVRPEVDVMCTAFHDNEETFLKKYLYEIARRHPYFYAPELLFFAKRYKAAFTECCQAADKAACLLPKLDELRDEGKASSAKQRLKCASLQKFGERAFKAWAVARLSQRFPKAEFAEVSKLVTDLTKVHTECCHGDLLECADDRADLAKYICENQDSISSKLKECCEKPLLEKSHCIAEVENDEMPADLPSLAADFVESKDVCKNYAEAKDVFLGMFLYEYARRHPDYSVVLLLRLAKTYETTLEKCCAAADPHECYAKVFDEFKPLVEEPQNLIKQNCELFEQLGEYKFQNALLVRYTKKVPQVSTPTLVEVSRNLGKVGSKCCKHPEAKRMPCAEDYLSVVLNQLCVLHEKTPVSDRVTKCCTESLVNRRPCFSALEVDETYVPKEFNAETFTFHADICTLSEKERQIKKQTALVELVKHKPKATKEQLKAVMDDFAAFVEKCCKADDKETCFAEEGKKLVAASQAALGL
Experimental: Briefly, cellulose membranes with MWCO of 12–14 kDa were submerged in distilled water for 1 h, followed by 20% ethanol/distilled water for at least 20 min. Prior to the start of the experiment, cellulose membranes were rinsed in distilled water and submerged in blank DPBS for 15 min. The HTDialysis device was assembled according to the manufacturer’s instructions (https://www.htdialysis.com). Blank DPBS was first added to the receiver side of the dialysis membranes, followed by DPBS spiked with HSA and the OAT1/3 substrate to the donor side. Each HSA concentration was tested in triplicates. The HTDialysis device was sealed with an adhesive sealing film and incubated in a water bath at 37 °C for 6 h shaken at 150 rpm. Once the assay was completed, aliquots from both receiver and donor wells were transferred to a 96-well plate and stored at −80 °C until analysis. DPBS spiked with the OAT1/3 substrate from both before and after incubation was stored to assess the recovery and stability of the samples. To prepare the sample for analysis, donor and receiver samples were matrix-matched and quenched with ice-cold acetonitrile containing an internal standard (0.5 μM gemfibrozil or 0.05 μM buspirone).

OAT3 = biological target: T1, OAT3 (Homo sapiens, UniProt Q8TCC7); experiment: OAT3 uptake study in ciPTEC-OAT3; conditions: for ratio of CLint,u,active (R) (HSA/control) 1%: OAT3, 1% HSA vs control; for ratio of CLint,u,active (R) (HSA/control) 4%: OAT3, 4% HSA vs control; for Vb,max OAT3, Active and Passive Uptake: eq 4 fitted to CLint,u; for Vb,max OAT3, Active and Passive Uptake / Vb,max OAT3, Active Uptake Only: mean ± S.D.; for Vb,max OAT3, Active Uptake Only: eq 4 fitted to CLint,u,active
T1 sequence (Q8TCC7 1-542): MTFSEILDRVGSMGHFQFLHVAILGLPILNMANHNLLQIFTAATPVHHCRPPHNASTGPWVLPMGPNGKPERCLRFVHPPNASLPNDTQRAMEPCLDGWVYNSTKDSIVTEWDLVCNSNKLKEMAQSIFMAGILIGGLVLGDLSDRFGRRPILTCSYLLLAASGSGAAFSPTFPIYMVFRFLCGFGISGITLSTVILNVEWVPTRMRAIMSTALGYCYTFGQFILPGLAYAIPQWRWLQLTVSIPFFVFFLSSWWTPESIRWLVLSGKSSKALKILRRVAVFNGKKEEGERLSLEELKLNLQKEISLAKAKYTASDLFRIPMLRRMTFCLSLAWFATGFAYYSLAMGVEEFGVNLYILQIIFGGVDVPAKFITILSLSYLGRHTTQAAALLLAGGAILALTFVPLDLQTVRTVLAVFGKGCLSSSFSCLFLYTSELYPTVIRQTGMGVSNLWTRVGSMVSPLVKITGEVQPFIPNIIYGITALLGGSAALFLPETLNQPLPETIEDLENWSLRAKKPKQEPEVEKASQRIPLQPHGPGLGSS

OAT1 = biological target: T2, OAT1 (Homo sapiens, UniProt Q4U2R8); experiment: OAT1 uptake study in ciPTEC-OAT1; conditions: for OAT1 substrate status (uptake in ciPTEC-OAT1): control vs probenecid 300 μM
T2 sequence (Q4U2R8 1-563): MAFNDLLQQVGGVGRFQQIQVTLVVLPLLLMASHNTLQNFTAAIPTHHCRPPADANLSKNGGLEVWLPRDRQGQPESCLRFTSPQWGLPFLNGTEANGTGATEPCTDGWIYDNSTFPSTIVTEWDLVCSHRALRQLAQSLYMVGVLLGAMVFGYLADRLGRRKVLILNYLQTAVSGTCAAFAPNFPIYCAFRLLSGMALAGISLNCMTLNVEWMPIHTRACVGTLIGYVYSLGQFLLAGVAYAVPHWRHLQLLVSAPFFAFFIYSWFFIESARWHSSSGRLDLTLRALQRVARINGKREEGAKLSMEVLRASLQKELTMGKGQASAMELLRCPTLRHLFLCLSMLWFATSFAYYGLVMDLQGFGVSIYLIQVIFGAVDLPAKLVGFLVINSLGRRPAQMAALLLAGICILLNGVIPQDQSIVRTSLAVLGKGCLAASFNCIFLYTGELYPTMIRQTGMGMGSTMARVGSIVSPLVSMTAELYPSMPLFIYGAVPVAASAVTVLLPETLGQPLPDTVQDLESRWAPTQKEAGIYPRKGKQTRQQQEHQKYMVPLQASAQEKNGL

[2] = in vivo, plasma renal clearance, clinical data; cited from earlier work
[3] = human, in vivo
OAT1/3 [4] = experiment: Bottom-up IVIVE of CLint,sec, CLsec and CLr, relative activity factor (RAF) approach; set-up: species or system human
Source text: as §1

[5] = Observed in vivo (clinical) renal, secretion and intrinsic secretion clearance; conditions: in vivo, back-calculated from clinical data
[6] = 1% human serum albumin in DPBS, 1% HSA, read-out: fu,inc (1%)
[7] = 4% HSA in DPBS, 4% HSA, read-out: fu,inc (4%)

SMILES | CLint,sec Predicted 0% HSA (OAT1/3 [1]) [L/h] | CLint,sec Predicted 1% HSA (OAT1/3 [1]) [L/h] | CLint,sec Predicted 4% HSA (OAT1/3 [1]) [L/h] | CLsec Predicted 0% HSA (OAT1/3 [1]) [L/h] | CLsec Predicted 1% HSA (OAT1/3 [1]) [L/h] | CLsec Predicted 4% HSA (OAT1/3 [1]) [L/h] | Kd (human serum albumin) [µM] | fraction unbound at 6 h (human serum albumin; [6]) | fraction unbound at 6 h (human serum albumin; [7]) | ratio of CLint,u,active (R) (HSA/control) 1% (OAT3) | ratio of CLint,u,active (R) (HSA/control) 4% (OAT3) | Vb,max OAT3, Active and Passive Uptake (OAT3) [pmol/min/mg] | Vb,max OAT3, Active Uptake Only (OAT3) [pmol/min/mg] | OAT1 substrate status (uptake in ciPTEC-OAT1) (OAT1) | CLr Observed [2] [L/h] | CLint,sec Observed [3] [L/h] | CLsec Observed [3] [L/h] | CLint,sec Predicted 0% HSA (OAT1/3 [4]) [L/h] | CLint,sec Predicted 1% HSA (OAT1/3 [4]) [L/h] | CLint,sec Predicted 4% HSA (OAT1/3 [4]) [L/h] | further results
CC(C)c1nc(N(C)S(C)(=O)=O)nc(-c2ccc(F)cc2)c1/C=C/[C@@H](O)C[C@@H](O)CC(=O)O [rosuvastatin] | 6.80 | 13.6 | 17.7 | 0.78 | 1.52 | 1.96 | 127 ± 5.6 | 0.435 ± 0.041 | 0.18 ± 0.009 | 2.12 ± 0.58 | 2.7 and 2.68 ± 0.62 | 290 ± 101 | 281 ± 96 | did not show any appreciable uptake | 11.9 | 130 | 11.1 | 34.3 | 68.3 | 89.0 | CLsec Predicted 0% HSA (OAT1/3 [4]): 3.64 L/h; CLsec Predicted 1% HSA (OAT1/3 [4]): 6.66 L/h; CLsec Predicted 4% HSA (OAT1/3 [4]): 8.27 L/h
O=C(NC[C@H]1CN(c2ccc(N3CCOCC3=O)cc2)C(=O)O1)c1ccc(Cl)s1 [rivaroxaban] | 6.78 | 41.7 | 67.0 | 0.48 | 2.79 | 4.32 | 55 ± 4.3 | 0.217 ± 0.006 | 0.096 ± 0.007 | 6.44 ± 2.61 | 10.0 ± 2.2 | 723 ± 216 | 714 ± 201 | did not show any appreciable uptake | 3.17 |  | 2.63 | 34.1 | 210 | 337.7 | CLint,sec Observed [5]: 41.2 L/h; CLsec Predicted 0% HSA (OAT1/3 [4]): 2.32 L/h; CLsec Predicted 1% HSA (OAT1/3 [4]): 11.1 L/h; CLsec Predicted 4% HSA (OAT1/3 [4]): 15.4 L/h
CCCCNc1cc(C(=O)O)cc(S(N)(=O)=O)c1Oc1ccccc1 [bumetanide] |  |  |  |  |  |  | 21.1 ± 1.4 | 0.141 ± 0.012 | 0.029 ± 0.003 |  |  | 492 ± 144 | 470 ± 132 | dual OAT1/3 substrates | 5.77 | 680 | 5.51 |  |  |  | OAT3 substrate status (uptake in ciPTEC-OAT3) (OAT3; control vs probenecid 300 μM): dual OAT1/3 substrates; Vb,max OAT1, Active and Passive Uptake (OAT1; eq 4 fitted to CLint,u, mean ± S.D.): 467 ± 49.4 pmol/min/mg; Vb,max OAT1, Active Uptake Only (OAT1; eq 4 fitted to CLint,u,active, Kd,m fixed from OAT3 data, mean ± S.D.): 447 ± 48 pmol/min/mg
